Experimental findings from patent US8513274B2, “Ellipticine compounds for treating obesity” (Etzem, Inc., priority 2009, dated 2013) are described below.

Counter-ions that a name gives are not always drawn.

This assay is described as follows: Reduction of body weight with ellipticine hydrochloride in mice. Type of assay: in vivo. The note with it: initial body weight 30 g, every weekday. The protocol:
In order to determine the effect of ellipticine and ellipticine derivatives in reducing body weight, ellipticine hydrochloride was administered to mice every weekday for 4 weeks (30 days) and their body weights tracked. Ellipticine hydrochloride was solubilized in saline and administered via intraperitoneal injection. Animals were weighed weekly.
Mice (6 per group) were divided into seven groups and given one of the following treatments: • 1. 10 mg ellipticine hydrochloride/kg body weight (Low) • 2. 20 mg ellipticine hydrochloride/kg body weight (Mid) • 3. 30 mg ellipticine hydrochloride/kg body weight (High) • 4. Saline • 5. 3 mg/kg body weight (Positive control 2) • 6. 5 mg/kg body weight (Positive control low) • 7. 10 mg/kg body weight (Positive control high)

Regarding `Cc1c2ccncc2c(C)c2c1[nH]c1ccccc12` [ellipticine hydrochloride], where the note is “10 mg/kg (Low) intraperitoneal in saline, end of 4 weeks”, the “body weight loss (decrease of body weight)” value is reported as “more than 18%”. Under “20 mg/kg (Mid) intraperitoneal in saline, end of week 3, animals then sacrificed”, the body weight loss result was “more than 33%”. Further, for the setting “30 mg/kg (High) intraperitoneal in saline, end of week 2, animals then sacrificed”, the “reduction in body weight” value came out at 28%.
